Source: patent publication US8058285B2, “Substituted pyrido [3′, 2′: 4, 5] thieno [3, 2-D] pyrimidines and pyrido [3′, 2′: 4, 5] furo [3, 2-D] pyrimidines used as inhibitors of the PDE-4 and/or the release of TNF-ALPHA” (The Medicines Company (Leipzig) GmbH, priority 2004, dated 2011)
Where a name gives a salt, the structure may show the parent alone.

Molecular target: T1, PDE-4A (Homo sapiens, UniProt P27815)
T1 construct: PDE-4A catalytic domain comprising amino acids 342-704; made in house; host or cells: Escherichia coli
Test: PDE-4A inhibitory assay (SPA)
Type: biochemical
From the text: Human recombinant PDE-4A catalytic domain comprising amino acids 342-704 was cloned into Escherichia coli and expressed, as described by W. Richter et al., Protein Expression and Purification (2000) 19: 375-383. The other posphodiesterases were either obtained from cell lines of human origin (TPH1 monocytes line for PDE-1, MCF7 for PDE-5) or expressed recombinantly in sf9 insect cells (for PDE-3A, PDE-3B, PDE-7A and PDE-4D) in accordance with an adapted method by Luckow, V. A. et al., in: Recombinant DNA Technology & Applications., (1991) eds. Prokop, Bajpai, R. K. & Ho, C. S., pp 97-152.
The phosphodiesterase activity was determined by the SPA assay as described by the manufacturer Amersham Biosciences and by Horton J. K and Baxendale P. M., Methods Mol. Biol. (1995) 41: 91-105.
The reaction mixtures contained 100 mM Tris-HCl (pH 7.5), 5 mM MgCl2, 3.8 mM 2-mercaptoethanol, and 1 μM cAMP or cGMP as a substrate, the inhibitors at different concentrations and also further components required for the detection of the individual isoenzymes (see below). The reaction was started by adding the enzyme. The operating volume is 100 μl in the wells of a white 96-Well microtiter plate. The test substances were produced as stock solutions in DMSO. The DMSO concentration in the reaction batch was 1% v/v. The PDE activity is not impaired with this DMSO concentration. Having started the reaction by the addition of enzyme, the samples were incubated at 22° C. for 20 min. The reaction was stopped by the addition of SPA bead suspension which contains the zinc sulfate concentration provided according to the manufacturer. Then, the beads are allowed to sediment for 30 min and the plates are analyzed on the luminescence microtiter plate reader Fluostar Optima (BMG Labtechologies).
[^3H]-cAMP was used as a substrate for determining the activity of PDE-2, -3, -4 and -7 and [^3H]-cGMP for determining the activity of PDE-5. The non-specific enzyme activities were determined in the presence of 100 μM rolipram (for PDE-4) and in the presence of 100 μM IBMX (for PDE-3 and -5) and subtracted from the test values. The incubation samples of the PDE-3 assay contain 10 μM rolipram to inhibit possible contaminations by PDE-4. The PDE-2 activity is tested using a SPA assay by Amersham Biosciences in the presence of the PDE-2 activator 5 μM cGMP. […] The selectivity as to PDEs 2, 3 and 5 has a factor of 100 to 10 000.

T1 sequence (P27815 342-704): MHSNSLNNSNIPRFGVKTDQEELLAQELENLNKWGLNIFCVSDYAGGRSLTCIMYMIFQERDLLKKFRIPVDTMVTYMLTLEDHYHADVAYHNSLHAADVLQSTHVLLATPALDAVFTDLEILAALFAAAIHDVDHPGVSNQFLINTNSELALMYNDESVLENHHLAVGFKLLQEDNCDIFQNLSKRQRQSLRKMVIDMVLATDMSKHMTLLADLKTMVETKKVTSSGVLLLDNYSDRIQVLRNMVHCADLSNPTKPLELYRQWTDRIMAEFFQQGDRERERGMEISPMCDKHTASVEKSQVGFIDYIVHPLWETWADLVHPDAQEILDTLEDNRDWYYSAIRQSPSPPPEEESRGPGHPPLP

| SMILES | IC50 |
| --- | --- |
| CCOc1nc(N2CCNCC2)nc2c1sc1nc(-c3ccc(C)cc3)cc(C)c12 [4-Ethoxy-9-methyl-7-(4-methyl-phenyl)-2-(piperazin-1-yl)-pyrido[3′,2′:4,5]thieno[3,2-d]pyrimidine] | 2 to 50 nM |
| CCOc1nc(N2CCNCC2)nc2c1sc1nc(-c3ccc(SC)cc3)cc(C)c12 [4-Ethoxy-9-methyl-7-(4-methylthio-phenyl)-2-piperazin-1-yl-pyrido[3′,2′:4,5]thieno[3,2-d]pyrimidine] | 2 to 50 nM |
| CCOc1nc(N2CCNCC2)nc2c1sc1nc(-c3ccc(Oc4ccccc4)cc3)nc(C)c12 [4-Ethoxy-9-methyl-7-(4-phenoxy-phenyl)-2-piperazin-1-yl-thieno[2,3-d:4,5-d′]dipyrimidine] | < 2 nM |
| CCOc1nc(N2CCNCC2)nc2c1sc1nc(N3CCOCC3)cc(C)c12 [4-Ethoxy-9-methyl-7-morpholino-2-(piperazin-1-yl)-pyrido[3′,2′:4,5]thieno[3,2-d]pyrimidine] | 2 to 50 nM |
| CCOc1nc(N2CCNCC2)nc2c1sc1nc(-c3ccccc3)nc(C)c12 [4-Ethoxy-9-methyl-7-phenyl-2-piperazin-1-yl-thieno[2,3-d:4,5-d′]dipyrimidine] | 2 to 50 nM |
| CCOc1nc(N2CCNCC2)nc2c1sc1nc(-c3cccs3)cc(C)c12 [4-Ethoxy-9-methyl-7-thien-2-yl-2-(piperazin-1-yl)-pyrido[3′,2′:4,5]thieno[3,2-d]pyrimidine] | 2 to 50 nM |
| CCOc1nc(N2CCNCC2)nc2c1sc1nc(N3CCSCC3)cc(C)c12 [4-Ethoxy-9-methyl-7-thiomorpholino-2-(piperazin-1-yl)-pyrido[3′,2′:4,5]thieno[3,2-d]pyrimidine-hydrochloride] | 2 to 50 nM |
| CCOc1nc(N2CCNCC2)nc2c1sc1nc(-c3ccccc3)c(Cc3ccc([N+](=O)[O-])cc3)c(C)c12 [4-Ethoxy-9-methyl-8-(4-nitro-benzyl)-7-phenyl-2-(piperazin-1-yl)-pyrido[3′,2′:4,5]thieno[3,2-d]pyrimidine] | 2 to 50 nM |
| CCOc1nc(N2CCNCC2)nc2c1sc1nc(-c3ccc(-n4cccc4)cc3)cc(C(F)(F)F)c12 [4-Ethoxy-9-trifluoromethyl-2-piperazin-1-yl-7-(4-(1H-pyrrol-1-yl)-phenyl)-pyrido[3′,2′:4,5]thieno[3,2-d]pyrimidine] | < 2 nM |
| CCOC(=O)c1ccc(-c2cc(C(F)(F)F)c3c(n2)sc2c(OCC)nc(N4CCNCC4)nc23)cc1 [4-[4-Ethoxy-2-(piperazin-1-yl)-9-trifluoromethyl-pyrido[3′,2′:4,5]thieno[3,2-d]pyrimidin-7-yl]-benzoic acid ethyl ester] | < 2 nM |
| CCOc1nc(N2CCNCC2)nc2c1sc1nc3c(c(C(F)(F)F)c12)CCc1cc(OC)ccc1-3 [5,6-Dihydro-11-ethoxy-3′-methoxy-9-piperazin-1-yl-7-trifluoromethyl-benzo[h]pyrimido[4′,5′:4,5]thieno[2,3-b]quinoline] | < 2 nM |
| CCOc1nc(N2CCNCC2)nc2c1sc1nc(-c3ccc4c(c3)OCCO4)cc(C(F)(F)F)c12 [7-(2,3-Dihydrobenzo[b][1,4]dioxin-6-yl)-4-ethoxy-2-(piperazin-1-yl)-9-trifluoromethyl-pyrido[3′,2′:4,5]thieno[3,2-d]pyrimidine] | < 2 nM |
| CCCc1nc(N2CCNCC2)c2sc3nc(-c4ccc(OC)c(OC)c4)cc(C)c3c2n1 [7-(3,4-Dimethoxy-phenyl)-9-methyl-4-(piperazin-1-yl)-2-n-propyl-pyrido[3′,2′:4,5]thieno[3,2-d]pyrimidine] | 2 to 50 nM |
| CCOc1nc(N2CCNCC2)nc2c1sc1nc(-c3cccc(N)c3)cc(C(F)(F)F)c12 [7-(3-Amino-phenyl)-4-Ethoxy-2-piperazin-1-yl-9-trifluoromethyl-pyrido[3′,2′:4,5]thieno[3,2-d]pyrimidine] | 2 to 50 nM |
| CCOc1nc(N2CCNCC2)nc2c1sc1nc(-c3cccc(C#N)c3)cc(C(F)(F)F)c12 [7-(3-Cyano-phenyl)-4-ethoxy-2-piperazin-1-yl-9-trifluoromethyl-pyrido[3′,2′:4,5]thieno[3,2-d]pyrimidine] | < 2 nM |
| CCOc1nc(N2CCNCC2)nc2c1sc1nc(-c3ccc(-c4ccc(OC)c(OC)c4)cc3)nc(C)c12 [7-(3′,4′-Dimethoxybiphen-4-yl)-4-ethoxy-9-methyl-2-piperazin-1-yl-thieno[2,3-d:4,5-d′]dipyrimidine] | < 2 nM |
| CCOc1nc(N2CCNCC2)nc2c1sc1nc(-c3ccc(N)cc3)cc(C(F)(F)F)c12 [7-(4-Amino-phenyl)-4-ethoxy-2-piperazin-1-yl-9-trifluoromethyl-pyrido[3′,2′:4,5]thieno[3,2-d]pyrimidine] | 2 to 50 nM |
| CCOc1nc(N2CCNCC2)nc2c1sc1nc(-c3ccc(-c4ccccc4)cc3)nc(C)c12 [7-(4-Biphenyl)-4-ethoxy-9-methyl-2-piperazin-1-yl-thieno[2,3-d:4,5-d′]dipyrimidine] | 2 to 50 nM |
| CCOc1nc(N2CCNCC2)nc2c1sc1nc(-c3ccc(Br)cc3)cc(CC)c12 [7-(4-Bromo-phenyl)-4-ethoxy-9-ethyl-2-(piperazin-1-yl)-pyrido[3′,2′:4,5]thieno[3,2-d]pyrimidine] | < 2 nM |
| CCOc1nc(N2CCNCC2)nc2c1sc1nc(-c3ccc(Br)cc3)cc(C)c12 [7-(4-Bromo-phenyl)-4-ethoxy-9-methyl-2-(piperazin-1-yl)-pyrido[3′,2′:4,5]thieno[3,2-d]pyrimidine] | 2 to 50 nM |
| CCOc1nc(N2CCNCC2)nc2c1sc1nc(-c3ccc(Br)cc3)nc(C)c12 [7-(4-Bromo-phenyl)-4-ethoxy-9-methyl-2-piperazin-1-yl-thieno[2,3-d:4,5-d′]dipyrimidine] | 2 to 50 nM |
| CCOc1nc(N2CCNCC2)nc2c1sc1nc(-c3ccc(Cl)cc3)cc(CC)c12 [7-(4-Chloro-phenyl)-9-ethyl-4-ethoxy-2-(piperazin-1-yl)-pyrido[3′,2′:4,5]thieno[3,2-d]pyrimidine] | 2 to 50 nM |
| CCOc1nc(N2CCNCC2)nc2c1sc1nc(-c3ccc(C#N)cc3)cc(C(F)(F)F)c12 [7-(4-Cyano-phenyl)-4-ethoxy-2-piperazin-1-yl-9-trifluoromethyl-pyrido[3′,2′:4,5]thieno[3,2-d]pyrimidine] | 2 to 50 nM |
| CCCOc1nc(N2CCNCC2)nc2c1sc1nc(-c3ccc(OCC)cc3)cc(CC)c12 [7-(4-Ethoxy-phenyl)-9-ethyl-2-(piperazin-1-yl)-4-n-propoxy-pyrido[3′,2′:4,5]thieno[3,2-d]pyrimidine] | < 2 nM |
| CCCOc1nc(N2CCNCC2)c2sc3nc(-c4ccc(OCC)cc4)cc(CC)c3c2n1 [7-(4-Ethoxy-phenyl)-9-ethyl-4-(piperazin-1-yl)-2-n-propoxy-pyrido[3′,2′:4,5]thieno[3,2-d]pyrimidine] | 2 to 50 nM |
| CCOc1nc(N2CCNCC2)nc2c1sc1nc(-c3ccc(-c4c(C)noc4C)cc3)nc(C)c12 [7-(4-[3,5-Dimethyl-isoxazol-4-yl]-phenyl)-4-ethoxy-9-methyl-2-piperazin-1-yl-thieno[2,3-d:4,5-d′]dipyrimidine] | < 2 nM |
| CCCCOc1ccc(Oc2ccc(-c3nc(C)c4c(n3)sc3c(OCC)nc(N5CCNCC5)nc34)cc2)cc1 [7-(4-[4-n-Butoxy-phenoxy]phenyl)-4-ethoxy-9-methyl-2-piperazin-1-yl-thieno[2,3-d:4,5-d′]dipyrimidine] | 2 to 50 nM |
| CCOc1nc(N2CCNCC2)nc2c1sc1nc(-c3ccc(C(C)(C)C)cc3)nc(C)c12 [7-(4-tert-Butyl-phenyl)-4-ethoxy-9-methyl-2-piperazin-1-yl-thieno[2,3-d:4,5-d′]dipyrimidine] | 2 to 50 nM |
